Values after ≈ are worked out from the molar mass of the structure shown. Values belong to the molecule of their own block, whether it stands above or below them. Active and inactive are the calls of the source. The calls are words filed in the database; no cut-off is given here.
Tests used:
[1] = tested on: MDA-MB-435; assay: Antiproliferative activity against human MDA-MB-435 cells assessed as reduction in cell growth inhibition at 10 uM incubated for 24 hrs by MTT assay relative to control; type: functional; details: read-out: GI
[2] = tested on: T47D; assay: Antiproliferative activity against human T47D cells assessed as inhibition of cell proliferation incubated for 24 hrs by MTT assay; type: functional, cell-based
[3] = tested on: T47D; assay: Antiproliferative activity against human T47D cells assessed as reduction in cell growth inhibition at 10 uM incubated for 24 hrs by MTT assay relative to control; type: functional; details: read-out: GI
[4] = tested on: NCI-H23; assay: Antiproliferative activity against human NCI-H23 cells assessed as reduction in cell growth inhibition at 10 uM incubated for 24 hrs by MTT assay relative to control; type: functional; details: read-out: GI
[5] = Cytotoxicity against human MCF-10A cells assessed as reduction in cell viability at 10 uM incubated for 24 hrs by MTT assay; type: toxicity, cell-based
[6] = Selectivity index, ratio of IC50 for human MCF-10A cells to IC50 for human T47D cells; type: toxicity; details: MCF-10A cells versus T47D cells, read-out: Ratio IC50
[7] = tested on: T47D; assay: Induction of cell cycle arrest in human T47D cells assessed as increase in accumulation of cells at G2-M phase at IC50 concentration incubated for 48 hrs by […]PI staining based flow cytometry analysis (reference value: 17.28%); type: functional
[8] = tested on: T47D; assay: Induction of cell cycle arrest in human T47D cells assessed as decrease in accumulation of cells at G0-G1 phase at IC50 concentration incubated for 48 hrs by […]PI staining based flow cytometry analysis (reference value: 52.84%); type: functional; parameters: scale not given: the % may be the effect or the level left
[9] = tested on: T47D; assay: Induction of cell cycle arrest in human T47D cells assessed as decrease in accumulation of cells at S phase at IC50 concentration incubated for 48 hrs by […]PI staining based flow cytometry analysis (reference value: 29.88%); type: functional; parameters: scale not given: the % may be the effect or the level left
[10] = tested on: T47D; assay: Induction of apoptosis in human T47D cells assessed as decrease in viable cells at IC50 concentration incubated for 48 hrs by AnnexinV-FITC/PI staining based flow cytometry relative to control; type: functional, cell-based
[11] = tested on: T47D; assay: Induction of apoptosis in human T47D cells assessed as increase in early apoptotic cells at IC50 concentration incubated for 48 hrs by AnnexinV-FITC/PI staining based flow cytometry (reference value: 0.64%); type: functional
[12] = tested on: T47D; assay: Induction of apoptosis in human T47D cells assessed as increase in late apoptotic cells at IC50 concentration incubated for 48 hrs by AnnexinV-FITC/PI staining based flow cytometry (reference value: 0.13%); type: functional
[13] = tested on: T47D; assay: Induction of apoptosis in human T47D cells assessed as increase in necrotic cells at IC50 concentration incubated for 48 hrs by AnnexinV-FITC/PI staining based flow cytometry (reference value: 1.42%); type: functional
[14] = tested on: T47D; assay: Induction of apoptosis in human T47D cells assessed as fold increase in ratio of apoptotic cells incubated for 48 hrs by AnnexinV-FITC/PI staining based flow cytometry; type: functional
[15] = tested on: T47D; assay: Induction of apoptosis in human T47D cells assessed as increase in p53 expression at IC50 concentration incubated for 48 hrs by Western blotting analysis; type: functional, cell-based
[16] = tested on: T47D; assay: Induction of apoptosis in human T47D cells assessed as increase in Bax expression at IC50 concentration incubated for 48 hrs by Western blotting analysis; type: functional, cell-based
[17] = tested on: T47D; assay: Induction of apoptosis in human T47D cells assessed as inhibition in Bcl2 expression at IC50 concentration incubated for 48 hrs by Western blotting analysis; type: functional, cell-based
[18] = tested on: T47D; assay: Induction of apoptosis in human T47D cells assessed as increase in Bax/Bcl-2 ratio at IC50 concentration incubated for 48 hrs by Western blotting analysis; type: functional, cell-based
[19] = Upregulation of Bax expression in human T47D cells assessed as fold change at IC50 concentration incubated for 48 hrs by Western blotting analysis; type: functional
[20] = Downregulation of Bcl-2 expression in human T47D cells assessed as fold change at IC50 concentration incubated for 48 hrs by Western blotting analysis; type: functional
[21] = biological target: Phosphatidylinositol 4,5-bisphosphate 3-kinase catalytic subunit alpha isoform (Homo sapiens, UniProt P42336); assay: Inhibition of PI3K alpha (unknown origin) using PIP2 as substrate preincubated for 10 mins followed by substrate addition and measured after 1 hrs by colorimetric analysis
Phosphatidylinositol 4,5-bisphosphate 3-kinase catalytic subunit alpha isoform, sequence (P42336 whole entry, canonical isoform): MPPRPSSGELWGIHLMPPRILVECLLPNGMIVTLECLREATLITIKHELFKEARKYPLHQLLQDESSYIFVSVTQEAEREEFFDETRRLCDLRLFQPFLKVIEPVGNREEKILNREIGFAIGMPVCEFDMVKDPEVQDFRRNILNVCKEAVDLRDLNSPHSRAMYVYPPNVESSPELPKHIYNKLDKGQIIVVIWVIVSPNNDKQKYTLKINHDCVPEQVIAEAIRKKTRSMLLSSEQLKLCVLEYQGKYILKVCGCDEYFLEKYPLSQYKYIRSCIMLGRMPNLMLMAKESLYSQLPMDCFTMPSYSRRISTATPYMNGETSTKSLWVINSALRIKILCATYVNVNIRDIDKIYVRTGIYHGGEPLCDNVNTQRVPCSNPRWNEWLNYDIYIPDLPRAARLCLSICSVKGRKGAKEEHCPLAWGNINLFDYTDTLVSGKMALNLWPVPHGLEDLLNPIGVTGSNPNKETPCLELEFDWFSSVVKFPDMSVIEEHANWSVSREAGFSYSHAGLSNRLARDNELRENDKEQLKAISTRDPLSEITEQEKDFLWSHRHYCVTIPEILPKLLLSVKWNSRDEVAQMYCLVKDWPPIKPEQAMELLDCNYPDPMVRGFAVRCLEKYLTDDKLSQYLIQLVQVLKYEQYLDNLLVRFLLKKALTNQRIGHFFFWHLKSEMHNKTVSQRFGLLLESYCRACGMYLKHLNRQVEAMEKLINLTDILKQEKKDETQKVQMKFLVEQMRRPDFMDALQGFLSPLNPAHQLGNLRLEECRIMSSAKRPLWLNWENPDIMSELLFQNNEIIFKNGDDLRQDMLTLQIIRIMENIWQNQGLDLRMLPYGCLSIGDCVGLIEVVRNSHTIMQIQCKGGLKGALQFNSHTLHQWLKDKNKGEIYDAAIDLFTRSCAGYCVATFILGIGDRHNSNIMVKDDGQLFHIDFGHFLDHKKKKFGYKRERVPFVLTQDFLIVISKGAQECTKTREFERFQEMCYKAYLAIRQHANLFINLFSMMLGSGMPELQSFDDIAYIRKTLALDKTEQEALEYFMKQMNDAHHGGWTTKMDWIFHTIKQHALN

[22] = biological target: Phosphatidylinositol 4,5-bisphosphate 3-kinase catalytic subunit beta isoform (Homo sapiens, UniProt P42338); assay: Inhibition of PI3K beta (unknown origin) using PIP2 as substrate preincubated for 10 mins followed by substrate addition and measured after 1 hrs by colorimetric analysis
Phosphatidylinositol 4,5-bisphosphate 3-kinase catalytic subunit beta isoform, sequence (P42338 whole entry, canonical isoform): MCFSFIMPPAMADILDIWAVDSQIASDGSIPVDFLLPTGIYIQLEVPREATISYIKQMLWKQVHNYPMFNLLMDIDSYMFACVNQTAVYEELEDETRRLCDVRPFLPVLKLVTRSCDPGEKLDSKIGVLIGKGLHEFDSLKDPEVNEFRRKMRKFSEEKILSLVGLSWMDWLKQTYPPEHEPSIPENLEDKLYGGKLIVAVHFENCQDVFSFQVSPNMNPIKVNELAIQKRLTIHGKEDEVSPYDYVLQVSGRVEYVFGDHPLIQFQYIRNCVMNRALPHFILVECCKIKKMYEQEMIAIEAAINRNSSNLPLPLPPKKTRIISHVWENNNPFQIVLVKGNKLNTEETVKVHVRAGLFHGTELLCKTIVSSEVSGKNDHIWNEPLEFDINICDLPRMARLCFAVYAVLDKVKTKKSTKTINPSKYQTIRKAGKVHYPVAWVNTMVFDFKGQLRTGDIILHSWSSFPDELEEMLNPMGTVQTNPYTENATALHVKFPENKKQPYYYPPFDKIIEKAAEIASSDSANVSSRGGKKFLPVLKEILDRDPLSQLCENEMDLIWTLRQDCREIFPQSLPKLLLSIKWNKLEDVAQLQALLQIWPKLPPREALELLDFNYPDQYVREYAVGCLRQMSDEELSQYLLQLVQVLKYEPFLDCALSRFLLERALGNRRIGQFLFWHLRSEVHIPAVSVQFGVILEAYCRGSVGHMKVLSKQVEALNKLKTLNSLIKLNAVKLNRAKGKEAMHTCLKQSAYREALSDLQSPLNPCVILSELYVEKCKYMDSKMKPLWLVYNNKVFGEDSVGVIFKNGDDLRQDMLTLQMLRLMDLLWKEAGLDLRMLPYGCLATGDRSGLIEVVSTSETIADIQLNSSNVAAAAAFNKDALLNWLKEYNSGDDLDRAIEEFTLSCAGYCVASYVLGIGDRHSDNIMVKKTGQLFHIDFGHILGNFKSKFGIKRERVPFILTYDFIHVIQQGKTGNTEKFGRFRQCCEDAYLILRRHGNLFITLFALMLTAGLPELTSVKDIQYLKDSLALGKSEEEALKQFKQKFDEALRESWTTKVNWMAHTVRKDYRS

[23] = biological target: T1, Phosphatidylinositol 4,5-bisphosphate 3-kinase catalytic subunit delta isoform (Homo sapiens, UniProt O00329); assay: Inhibition of PI3K delta (unknown origin) using PIP2 as substrate preincubated for 10 mins followed by substrate addition and measured after 1 hrs by colorimetric analysis
T1 sequence (O00329 whole entry): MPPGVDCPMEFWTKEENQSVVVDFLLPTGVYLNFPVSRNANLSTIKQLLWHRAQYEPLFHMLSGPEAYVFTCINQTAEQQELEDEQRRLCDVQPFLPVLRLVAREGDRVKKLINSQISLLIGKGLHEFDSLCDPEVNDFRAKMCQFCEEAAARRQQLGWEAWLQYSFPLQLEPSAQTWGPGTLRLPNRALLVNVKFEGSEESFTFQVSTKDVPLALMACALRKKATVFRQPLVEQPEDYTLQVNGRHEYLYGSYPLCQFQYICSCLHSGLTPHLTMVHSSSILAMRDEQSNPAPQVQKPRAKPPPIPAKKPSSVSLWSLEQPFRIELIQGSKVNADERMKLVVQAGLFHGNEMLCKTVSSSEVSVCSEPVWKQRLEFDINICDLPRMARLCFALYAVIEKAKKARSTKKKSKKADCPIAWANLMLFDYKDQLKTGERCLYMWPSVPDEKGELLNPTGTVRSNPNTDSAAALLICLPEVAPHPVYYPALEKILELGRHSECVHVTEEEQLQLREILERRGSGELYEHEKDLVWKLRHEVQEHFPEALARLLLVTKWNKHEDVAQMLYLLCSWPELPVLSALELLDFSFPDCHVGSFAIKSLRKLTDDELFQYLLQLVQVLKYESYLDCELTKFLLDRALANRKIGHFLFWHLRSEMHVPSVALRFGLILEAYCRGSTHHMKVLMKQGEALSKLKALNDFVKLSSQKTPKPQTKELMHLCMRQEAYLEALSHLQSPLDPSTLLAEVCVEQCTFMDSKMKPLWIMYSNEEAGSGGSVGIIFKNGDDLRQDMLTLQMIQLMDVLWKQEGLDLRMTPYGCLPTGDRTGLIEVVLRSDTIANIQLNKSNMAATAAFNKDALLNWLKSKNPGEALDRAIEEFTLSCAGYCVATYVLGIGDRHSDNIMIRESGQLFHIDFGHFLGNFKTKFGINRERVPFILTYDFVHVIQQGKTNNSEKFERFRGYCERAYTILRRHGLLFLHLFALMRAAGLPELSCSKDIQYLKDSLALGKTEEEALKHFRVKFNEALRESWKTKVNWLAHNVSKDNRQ

[24] = biological target: Phosphatidylinositol 4,5-bisphosphate 3-kinase catalytic subunit gamma isoform (Homo sapiens, UniProt P48736); assay: Inhibition of PI3K gamma (unknown origin) using PIP2 as substrate preincubated for 10 mins followed by substrate addition and measured after 1 hrs by colorimetric analysis
Phosphatidylinositol 4,5-bisphosphate 3-kinase catalytic subunit gamma isoform, sequence (P48736 whole entry, canonical isoform): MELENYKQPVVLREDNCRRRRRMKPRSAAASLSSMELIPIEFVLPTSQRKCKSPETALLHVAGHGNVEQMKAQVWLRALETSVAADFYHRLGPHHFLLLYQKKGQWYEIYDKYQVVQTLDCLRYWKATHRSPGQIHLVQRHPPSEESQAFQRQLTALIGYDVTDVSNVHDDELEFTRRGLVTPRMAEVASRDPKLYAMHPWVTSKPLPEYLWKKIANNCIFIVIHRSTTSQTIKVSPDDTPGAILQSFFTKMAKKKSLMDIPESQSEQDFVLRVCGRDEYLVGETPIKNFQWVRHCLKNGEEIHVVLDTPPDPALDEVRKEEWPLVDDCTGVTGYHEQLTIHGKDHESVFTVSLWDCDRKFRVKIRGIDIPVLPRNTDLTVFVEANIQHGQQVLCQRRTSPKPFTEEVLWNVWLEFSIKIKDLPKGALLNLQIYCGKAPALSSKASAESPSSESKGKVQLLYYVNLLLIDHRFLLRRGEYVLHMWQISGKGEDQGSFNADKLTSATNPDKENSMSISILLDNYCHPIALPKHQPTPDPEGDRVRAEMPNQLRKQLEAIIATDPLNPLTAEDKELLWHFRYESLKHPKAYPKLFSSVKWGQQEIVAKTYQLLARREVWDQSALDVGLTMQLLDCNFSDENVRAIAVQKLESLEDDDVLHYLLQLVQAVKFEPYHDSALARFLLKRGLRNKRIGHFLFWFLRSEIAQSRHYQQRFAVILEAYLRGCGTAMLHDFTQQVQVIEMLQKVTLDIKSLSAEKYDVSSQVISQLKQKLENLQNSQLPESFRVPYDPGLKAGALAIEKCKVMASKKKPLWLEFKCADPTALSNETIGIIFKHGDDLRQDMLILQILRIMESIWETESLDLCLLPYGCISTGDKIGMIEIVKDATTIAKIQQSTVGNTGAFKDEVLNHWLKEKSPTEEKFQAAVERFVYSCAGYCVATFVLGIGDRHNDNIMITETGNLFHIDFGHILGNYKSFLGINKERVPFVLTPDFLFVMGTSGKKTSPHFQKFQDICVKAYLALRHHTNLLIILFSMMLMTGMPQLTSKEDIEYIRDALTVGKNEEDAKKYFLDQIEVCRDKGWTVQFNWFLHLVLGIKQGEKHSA

SMILES: Cc1ccc(C(=O)C2=CNC(=S)NC2c2ccc(O)cc2)cc1 (stereo not given)
inhibition of growth at 10 µM [1]: 184%

IC50 [2]: 18.4 µg/mL (≈ 68.4 µM)
SMILES: Cc1ccc(-c2ccc3c(=O)[nH]c(=S)[nH]c3n2)cc1
inhibition of growth at 10 µM [3]: 81%

IC50 [2]: 52.7 µg/mL (≈ 185 µM)
SMILES: COc1ccc(-c2ccc3c(=O)[nH]c(=S)[nH]c3n2)cc1
inhibition of growth at 10 µM [3]: 81%

SMILES: O=C(C1=CNC(=S)NC1c1ccc(F)cc1)c1ccc(Cl)cc1 (stereo not given)
inhibition of growth at 10 µM [1]: 63%

SMILES: Cc1ccc(C(=O)C2=CNC(=O)NC2c2ccc(O)cc2)cc1 (stereo not given)
inhibition of growth at 10 µM [4]: 114%

SMILES: O=C(C1=CNC(=S)NC1c1ccc(F)cc1)c1ccccc1 (stereo not given)
inhibition of growth at 10 µM [1]: 63%

IC50 [2]: 22.1 µg/mL (≈ 73.7 µM)
SMILES: O=c1[nH]c(=S)[nH]c2nc(-c3ccc([N+](=O)[O-])cc3)ccc12
inhibition of growth at 10 µM [3]: 81%

IC50 [2]: 1.46 µg/mL (≈ 5.04 µM)
IC50 [21]: 0.632 µM
IC50 [22]: 7.69 µM
IC50 [23]: 40.9 µM
IC50 [24]: 2.12 µM
SMILES: O=c1[nH]c(=S)[nH]c2nc(-c3ccc(Cl)cc3)ccc12
inhibition of growth at 10 µM [3]: 81%
IC50 at 24 h [5]: 422 µg/mL (≈ 1460 µM)
selectivity ratio [6]: 289
Activity [7]: 28.02%
Activity [8]: 45.11%
Activity [9]: 26.87%
Activity [10]: Active
Activity [11]: 18.83%
Activity [12]: 11.51%
Activity [13]: 6.88%
fold change (FC) [14]: ~37
Activity [15]: Active
Activity [16]: Active
Activity [17]: Active
Activity [18]: Active
fold change (FC) [19]: 2.38
fold change (FC) [20]: 0.69

IC50 [2]: 2.56 µg/mL (≈ 4.98 µM)
SMILES: CS(=O)(=O)N1CCN(Cc2cc3nc(-c4cccc5[nH]ncc45)nc(N4CCOCC4)c3s2)CC1 [PICTILISIB]

SMILES: O=C(C1=CNC(=S)NC1c1ccc(F)cc1)c1ccc(F)cc1 (stereo not given)
inhibition of growth at 10 µM [1]: 63%

IC50 [2]: 6.09 µg/mL (≈ 22.3 µM)
SMILES: O=c1[nH]c(=S)[nH]c2nc(-c3ccc(F)cc3)ccc12
inhibition of growth at 10 µM [3]: 81%

IC50 [2]: 16.1 µg/mL (≈ 63 µM)
SMILES: O=c1[nH]c(=S)[nH]c2nc(-c3ccccc3)ccc12
inhibition of growth at 10 µM [3]: 50%

IC50 [2]: 9.62 µg/mL (≈ 28.8 µM)
SMILES: O=c1[nH]c(=S)[nH]c2nc(-c3ccc(Br)cc3)ccc12
inhibition of growth at 10 µM [3]: 81%

— ChEMBL document CHEMBL6078730, “Exploring the antiproliferative and proapoptotic activities of new pyridopyrimidine derivatives and their analogs” (Bioorg Med Chem, 2025)
